From patent US7625894B2, “Pyrrolo[2,3-d]Pyrimidines as Protein Tyrosine Kinase Inhibitors” (Novartis AG, priority 2004, dated 2009)

How the values were obtained:
[1] = biological target: T1, c-Raf-1 (Homo sapiens, UniProt P04049); assay: c-Raf-1 protein kinase assay; assay type: biochemical; parameters: dose or concentration left out as unconfirmed
T1 construct: made in house; host or cells: Sf21 insect cells, triple baculovirus infection (GST-c-Raf-1, v-Ras, v-Src)
Description: c-Raf-1 protein kinase assay: Recombinant c-Raf-1 protein is obtained by triple infection of Sf21 cells with GST-c-Raf-1 recombinant baculovirus together with v-Src and v-Ras recombinant baculoviruses that are required for active c-Raf-1 kinase production (Williams et al., PNAS 1992; 89:2922-6). Active Ras (v-Ras) is required to recruit c-Raf-1 to the cell membrane and v-Src to phosphorylate c-Raf-1 to fully activate it. Cells are seeded at 2.5×10^7 cells per 150 mm dish and allowed to attach to a 150 mm dish for 1 hr at RT. Media (SF900II containing 10% FBS) is aspirated and recombinant baculovirus GST-c-Raf-1, v-Ras and v-Src are added at MOI of 3.0, 2.5 and 2.5, respectively, in a total volume of 4-5 mL. Cells are incubated for 1 hr at RT and then 15 mL of medium is added. Infected cells are incubated for 48-72 hr at 27° C. Infected Sf21 cells are scraped and collected into a 50 mL tube and centrifuged for 10 min at 4° C. at 1100 g in a Sorvall centrifuge. The cell pellet is washed once with ice cold PBS and lysed with 0.6 mL lysis buffer per 2.5×10^7 cells. Complete lysis of cells is achieved after 10 min on ice with occasional pipetting. The cell lysates are centrifuged for 10 min at 4° C. at 14,500 g in a Sorvall centrifuge with SS-34 rotor and the supernatant is transferred to a fresh tube and stored at −80° C. c-Raf-1 is purified from cell lysates using 100 μL of packed glutathione-sepharose 4B beads equilibrated in ice cold PBS per 2.5×10^7 cells. GST-c-Raf-1 is allowed to bind to the beads at 4° C. for 1 hr with rocking. Bound GST-c-Raf-1 with beads is transferred to a column. The column is washed once with lysis buffer and twice with ice cold Tris buffered saline. Ice cold elution buffer is added and column flow is stopped to allow the free glutathione to disrupt the interaction of GST-c-Raf-1 with glutathione sepharose beads. Fractions (1 mL) are collected into pre-chilled tubes. Each tube contains 10% glycerol (final concentration) to maintain kinase activity during freeze thaw cycles. Purified fractions of GST-c-Raf-1 kinase protein are stored at −80° C.
IκB is used as substrate for the c-Raf-1 kinase. IκB is expressed in bacteria as a His-tagged protein BL21. LysS bacteria containing the IκB plasmid are grown to an OD600 of 0.6 in LB medium, then induced to express the IκB with IPTG (final concentration of 1 mM) for 3 hrs at 37° C. and then bacteria are lysed by sonication (microtip limit setting for 3 times at 1 min each in sonication buffer [50 mM Tris pH 8.0, 1 mM DTT, 1 mM EDTA] and centrifuged at 10,000 g for 15 min. The supernatant is mixed with ammonium sulfate to give a final concentration of 30%. This mixture is rocked for 15 min at 4 C then spun at 10,000 g for 15 min. The pellet is resuspended in binding buffer (Novagen) containing 10 mM BSA. This solution is applied to Ni-agarose (Novagen) and washed according to the Novagen manual. IκB is eluted from the column using elution buffer (0.4 M imidazole, 0.2 M NaCl, 8 mM Tris pH 7.9). Fractions containing protein are dialysed in 50 mM Tris pH 8, 1 mM DTT. The activity of c-Raf-1 protein kinase is assayed in the presence or absence of inhibitors, by measuring the incorporation of ^33P from [γ^33P] ATP into IκB. The assay is carried out in 96-well plates at ambient temperature for 60 min. It contains (total volume of 30 μL): c-Raf-1 kinase (400 ng), 25 mM Tris.HCl, pH 7.5, 5 mM MgCl2, 5 mM MnCl2, 10 μM Na3VO4, 1 mM DTT and 0.3 μCi/assay [γ^33P]-ATP (10 μM ATP) using 600 ng IκB in the presence of 1% DMSO. Reactions are terminated by adding 10 μL of 250 mM EDTA and 30 μL of the reaction mixture is transferred onto Immobilon-PVDF membrane (Millipore, Bedford, Mass., USA) previously soaked for 5 min with methanol, rinsed with water, then soaked for 5 min with 0.5% H3PO4 and mounted on vacuum manifold with disconnected vacuum source. After spotting all samples, vacuum is connected and each well rinsed with 200 μL 0.5% H3PO4. […]

[2] = biological target: EGF-R (HER-1) (Homo sapiens, UniProt P00533); assay: Inhibition of the tyrosine kinase activity of EGF-R (HER-1); assay type: biochemical; parameters: dose or concentration left out as unconfirmed
[3] = biological target: T2, VEGF receptor (KDR) (Homo sapiens, UniProt P35968); assay: Inhibition of VEGF-induced KDR-receptor autophosphorylation in transfected CHO cells; assay type: cell-based
T2 construct: expressed in transfected cells
T2 sequence (P35968 20-1356): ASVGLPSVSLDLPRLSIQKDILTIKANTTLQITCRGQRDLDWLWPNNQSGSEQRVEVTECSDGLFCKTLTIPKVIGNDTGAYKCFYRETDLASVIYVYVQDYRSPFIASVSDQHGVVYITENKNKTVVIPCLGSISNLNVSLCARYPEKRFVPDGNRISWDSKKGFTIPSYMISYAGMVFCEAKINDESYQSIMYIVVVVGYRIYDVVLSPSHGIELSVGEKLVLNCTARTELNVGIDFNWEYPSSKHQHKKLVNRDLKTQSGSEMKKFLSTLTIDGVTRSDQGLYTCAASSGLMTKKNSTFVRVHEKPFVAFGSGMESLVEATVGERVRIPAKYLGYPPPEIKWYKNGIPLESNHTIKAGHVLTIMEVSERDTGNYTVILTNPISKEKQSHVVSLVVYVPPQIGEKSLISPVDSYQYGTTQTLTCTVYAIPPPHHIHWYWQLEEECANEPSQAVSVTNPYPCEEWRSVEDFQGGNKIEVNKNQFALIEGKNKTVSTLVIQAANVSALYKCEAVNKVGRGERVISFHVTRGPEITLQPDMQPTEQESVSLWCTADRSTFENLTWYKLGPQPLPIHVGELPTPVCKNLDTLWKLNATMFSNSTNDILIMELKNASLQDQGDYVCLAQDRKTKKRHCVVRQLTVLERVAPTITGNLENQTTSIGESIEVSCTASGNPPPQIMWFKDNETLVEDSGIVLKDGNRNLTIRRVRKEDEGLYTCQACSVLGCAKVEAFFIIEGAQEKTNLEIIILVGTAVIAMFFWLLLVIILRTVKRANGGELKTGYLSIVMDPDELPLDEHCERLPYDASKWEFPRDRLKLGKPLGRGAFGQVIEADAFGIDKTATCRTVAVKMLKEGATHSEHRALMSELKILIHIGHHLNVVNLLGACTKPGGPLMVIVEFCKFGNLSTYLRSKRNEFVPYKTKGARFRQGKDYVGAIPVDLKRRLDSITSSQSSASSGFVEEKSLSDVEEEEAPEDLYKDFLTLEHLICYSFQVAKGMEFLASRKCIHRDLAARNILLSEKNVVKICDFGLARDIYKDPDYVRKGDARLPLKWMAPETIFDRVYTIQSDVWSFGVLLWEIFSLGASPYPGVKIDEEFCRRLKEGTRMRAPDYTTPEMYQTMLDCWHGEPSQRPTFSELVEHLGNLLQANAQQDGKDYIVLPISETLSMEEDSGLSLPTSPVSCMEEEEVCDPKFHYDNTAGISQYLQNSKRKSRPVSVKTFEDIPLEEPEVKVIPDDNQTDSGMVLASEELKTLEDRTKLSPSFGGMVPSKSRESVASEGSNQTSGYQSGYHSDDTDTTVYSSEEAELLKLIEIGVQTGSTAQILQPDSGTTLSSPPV
Description: The inhibition of VEGF-induced KDR-receptor autophosphorylation can be confirmed with a further in vitro experiment in cells: transfected CHO cells, which permanently express human VEGF receptor (KDR), are seeded in complete culture medium with 10% fetal calf serum (FCS) in 6-well cell-culture plates and incubated at 37° C. under 5% CO2 until they show about 80% confluency. The compounds to be tested are then diluted in culture medium (without FCS, with 0.1% bovine serum albumin) and added to the cells. (Controls comprise medium without test compounds). After two hours of incubation at 37° C., recombinant VEGF is added; the final VEGF concentration is 20 ng/mL). After a further five minute incubation at 37° C., the cells are washed twice with ice-cold PBS (phosphate-buffered saline) and immediately lysed in 100 μL lysis buffer per well. The lysates are then centrifuged to remove the cell nuclei, and the protein concentrations of the supernatants are determined using a commercial protein assay (BIORAD). The lysates can then either be immediately used or, if necessary, stored at −20° C.
A sandwich ELISA is carried out to measure the KDR-receptor phosphorylation: a monoclonal antibody to KDR (for example Mab 1495.12.14) is immobilized on black ELISA plates (OptiPlate™ HTRF-96 from Packard). The plates are then washed and the remaining free protein-binding sites are saturated with 1% BSA in PBS. The cell lysates (20 μg protein per well) are then incubated in these plates overnight at 4° C. together with an anti-phosphotyrosine antibody coupled with alkaline phosphatase (PY20: AP from Transduction Laboratories). […] The luminescence is measured in a Packard Top Count Microplate Scintillation Counter (Top Count). The difference between the signal of the positive control (stimulated with VEGF) and that of the negative control (not stimulated with VEGF) corresponds to VEGF-induced KDR-receptor phosphorylation (=100%). The activity of the tested substances is calculated as % inhibition of VEGF-induced KDR-receptor phosphorylation, wherein the concentration of substance that induces half the maximum inhibition is defined as the IC50 (effective dose for 50% inhibition).

Molecule	c-Raf-1/ %-inh. [%] [1]	HER-1/ %-inh. [%] [2]	KDR (% inh) [3]	melting point
CCCNc1ncnc2[nH]c(-c3ccc(CN4CCN(C)CC4)cc3)cc12 [Example 18, {6-[4-(4-Methyl-piperazin-1-ylmethyl)-phenyl]-7H-pyrrolo[2,3-d]pyrimidin-4-yl}-propyl-amine]	100%	98%	83%	232 to 234 °C
CN(C)c1ncnc2[nH]c(-c3ccc(CNCCCO)cc3)cc12 [Example 28, 3-[4-(4-Dimethylamino-7H-pyrrolo[2,3-d]pyrimidin-6-yl)-benzylamino]-propan-1-ol]	80%	85%	76%	218 to 220 °C
CN(C)c1ncnc2[nH]c(-c3ccc(Cn4cnnn4)cc3)cc12 [Example 27, Dimethyl-[6-(4-tetrazol-1-ylmethyl-phenyl)-7H-pyrrolo[2,3-d]pyrimidin-4-yl]-amine]	100%	83%	58%	275 to 278 °C
CN(C)c1ncnc2[nH]c(-c3ccc(Cn4ccnc4)cc3)cc12 [Example 24, [6-(4-Imidazol-1-ylmethyl-phenyl)-7H-pyrrolo[2,3-d]pyrimidin-4-yl]-dimethylamine]	100%	93%	75%	–
CN1CCN(C(=O)c2ccc(-c3cc4c(NCCCO)ncnc4[nH]3)cc2)CC1 [Example 15, {4-[4-(3-Hydroxy-propylamino)-7H-pyrrolo[2,3-d]pyrimidin-6-yl]-phenyl}-(4-methyl-piperazin-1-yl)-methanone]	64%	94%	80%	302 to 305 °C
CNc1ncnc2[nH]c(-c3ccc(CN4CCN(C)CC4)cc3)cc12 [Example 16, Methyl-{6-[4-(4-methyl-piperazin-1-ylmethyl)-phenyl]-7H-pyrrolo[2,3-d]pyrimidin-4-yl}-amine]	67%	94%	85%	–
CCCNc1ncnc2[nH]c(-c3ccc(C(=O)N4CCN(C)CC4)cc3)cc12 [Example 17, (4-Methyl-piperazin-1-yl)-[4-(4-propylamino-7H-pyrrolo[2,3-d]pyrimidin-6-yl)-phenyl]-methanone]	100%	95%	81%	302 to 305 °C
CN(C)c1ncnc2[nH]c(-c3ccc(C(=O)N4CCOCC4)cc3)cc12 [Example 6, [4-(4-Dimethylamino-7H-pyrrolo[2,3-d]pyrimidin-6-yl)-phenyl]-morpholin-4-yl-methanone]	63%	70%	83%	316 to 318 °C
CCC(O)(CC)c1ccc(-c2cc3c(NCCCn4cccc4)ncnc3[nH]2)cc1 [Example 33, 3-{4-[4-(3-Pyrrol-1-yl-propylamino)-7H-pyrrolo[2,3-d]pyrimidin-6-yl]-phenyl}-pentan-3-ol]	48%	98%	84%	180 to 182 °C
CN(C)c1ncnc2[nH]c(-c3ccc(Cc4ccc[nH]4)cc3)cc12 [Example 25, Dimethyl-{6-[4-(1H-pyrrol-2-ylmethyl)-phenyl]-7H-pyrrolo[2,3-d]pyrimidin-4-yl}-amine]	96%	57%	50%	285 to 287 °C
CN(C)c1ncnc2[nH]c(-c3ccc(C(=O)NCCCN4CCOCC4)cc3)cc12 [Example 7, 4-(4-Dimethylamino-7H-pyrrolo[2,3-d]pyrimidin-6-yl)-N-(3-morpholin-4-yl-propyl)-benzamide]	–	59%	79%	260 to 262 °C
CNc1ncnc2[nH]c(-c3ccc(C(C)(C)O)cc3)cc12 [Example 35, 2-[4-(4-Methylamino-7H-pyrrolo[2,3-d]pyrimidin-6-yl)-phenyl]-propan-2-ol]	44%	90%	76%	280 to 283 °C
CNc1ncnc2[nH]c(-c3ccc(C(=O)N4CCN(C)CC4)cc3)cc12 [Example 12, [4-(4-Methylamino-7H-pyrrolo[2,3-d]pyrimidin-6-yl)-phenyl]-(4-methyl-piperazin-1-yl)-methanone]	22%	85%	67%	315 °C
CCCN(C)c1ncnc2[nH]c(-c3ccc(CN4CCN(C)CC4)cc3)cc12 [Example 19, Methyl-{6-[4-(4-methyl-piperazin-1-ylmethyl)-phenyl]-7H-pyrrolo[2,3-d]pyrimidin-4-yl}-propyl-amine]	100%	97%	85%	–
CCN(CC)CCCNC(=O)c1ccc(-c2cc3c(N(C)C)ncnc3[nH]2)cc1 [Example 5, N-(3-Diethylamino-propyl)-4-(4-dimethylamino-7H-pyrrolo[2,3-d]pyrimidin-6-yl)-benzamide]	48%	58%	79%	–
[4-(4-Methylamino-7H-pyrrolo[2,3-d]pyrimidin-6-yl)-phenyl]-morpholin-4-yl-methanone [Example 2]	56%	78%	77%	–
